# Experimental data from ChEMBL document CHEMBL3217621, “Diaryl ether derivatives as anticancer agents a review” (Medchemcomm, 2012).
# Columns and labels:
# [1] = Inhibition of GGPTase-1 (unknown origin); set-up: species or system Homo sapiens
# [2] = Selectivity index, ratio of IC50 for human KB3-1 cells to IC50 for bFGF-treated HUVEC; set-up: species or system KB 3-1
# HUVEC = assay: Antiproliferative activity against bFGF-treated HUVEC; assay type: functional, cell-based; conditions: Homo sapiens
# [3] = Cytotoxicity against human MOLT3 cells; assay type: functional, cell-based; conditions: MOLT-3
# HL-60 = assay: Cytotoxicity against human HL60 cells; assay type: functional, cell-based
# PC-3 [4] = assay: Cytotoxicity against human PC3 cells assessed as growth inhibition after 48 hrs by MTT assay; assay type: functional, cell-based; conditions: PC-3, 48 h
# PC-3 [5] = assay: Induction of apoptosis in human PC3 cells at 10 uM after 24 hrs by propidium iodide/Hochest33342 staining-based flow cytometry (reference value: 0.05%); assay type: functional
# [6] = Cytotoxicity against human RPE1 cells assessed as cell viability after 24 to 72 hrs by MTT assay; assay type: cell-based, TERT-RPE1; conditions: RPE-1
# Aromatase = molecular target: T1, Aromatase (Homo sapiens, UniProt P11511); assay: Inhibition of aromatase (unknown origin)
# T1 sequence (P11511 whole entry): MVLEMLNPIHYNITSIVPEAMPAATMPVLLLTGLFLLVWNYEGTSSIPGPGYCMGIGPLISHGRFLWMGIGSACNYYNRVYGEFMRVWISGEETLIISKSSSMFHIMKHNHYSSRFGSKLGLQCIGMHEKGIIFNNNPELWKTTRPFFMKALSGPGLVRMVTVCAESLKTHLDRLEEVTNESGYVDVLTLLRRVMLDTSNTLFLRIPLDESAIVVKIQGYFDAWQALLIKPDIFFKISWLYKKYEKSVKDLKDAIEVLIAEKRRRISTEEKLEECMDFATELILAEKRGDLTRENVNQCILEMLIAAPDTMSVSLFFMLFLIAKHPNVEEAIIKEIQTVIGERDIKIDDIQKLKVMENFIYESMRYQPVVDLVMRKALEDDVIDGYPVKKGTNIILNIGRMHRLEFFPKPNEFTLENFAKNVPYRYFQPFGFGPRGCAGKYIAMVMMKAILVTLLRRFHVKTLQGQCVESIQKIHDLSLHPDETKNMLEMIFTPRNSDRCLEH
# [7] = AUC in cynomolgus monkey at 3 mg/kg, po; assay type: ADME, organism-based, Macaca fascicularis; set-up: dose 3 mg/kg, route oral; conditions: plasma
# [8] = molecular target: 72 kDa type IV collagenase (Homo sapiens, UniProt P08253); assay: Inhibition of MMP-2 (unknown origin)
# Interstitial collagenase = molecular target: T2, Interstitial collagenase (Homo sapiens, UniProt P03956); assay: Inhibition of MMP-1 (unknown origin)
# T2 sequence (P03956 whole entry): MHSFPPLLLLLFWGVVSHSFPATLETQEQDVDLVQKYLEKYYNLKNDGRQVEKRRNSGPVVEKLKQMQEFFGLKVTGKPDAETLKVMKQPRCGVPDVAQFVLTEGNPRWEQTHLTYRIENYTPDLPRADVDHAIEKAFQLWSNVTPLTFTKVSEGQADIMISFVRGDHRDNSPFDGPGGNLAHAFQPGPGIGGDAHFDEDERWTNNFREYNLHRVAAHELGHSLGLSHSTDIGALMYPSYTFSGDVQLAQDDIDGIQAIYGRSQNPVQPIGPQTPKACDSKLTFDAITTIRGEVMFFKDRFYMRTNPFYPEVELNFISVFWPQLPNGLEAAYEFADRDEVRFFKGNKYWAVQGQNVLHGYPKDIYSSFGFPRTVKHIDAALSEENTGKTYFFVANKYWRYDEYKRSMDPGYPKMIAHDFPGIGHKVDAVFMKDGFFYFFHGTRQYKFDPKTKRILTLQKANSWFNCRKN
# [9] = molecular target: Matrix metalloproteinase-9 (Homo sapiens, UniProt P14780); assay: Inhibition of MMP-9 (unknown origin)
# [10] = Half life in cynomolgus monkey at 3 mg/kg, iv; assay type: ADME, organism-based, Macaca fascicularis; set-up: dose 3 mg/kg, route intravenous; conditions: in vivo
# P388 = assay: Cytotoxicity against mouse P388 cells assessed as growth inhibition after 5 days by MTT assay; assay type: functional, cell-based; conditions: P388, 120 h
# 72 kDa type IV collagenase, sequence (P08253 whole entry): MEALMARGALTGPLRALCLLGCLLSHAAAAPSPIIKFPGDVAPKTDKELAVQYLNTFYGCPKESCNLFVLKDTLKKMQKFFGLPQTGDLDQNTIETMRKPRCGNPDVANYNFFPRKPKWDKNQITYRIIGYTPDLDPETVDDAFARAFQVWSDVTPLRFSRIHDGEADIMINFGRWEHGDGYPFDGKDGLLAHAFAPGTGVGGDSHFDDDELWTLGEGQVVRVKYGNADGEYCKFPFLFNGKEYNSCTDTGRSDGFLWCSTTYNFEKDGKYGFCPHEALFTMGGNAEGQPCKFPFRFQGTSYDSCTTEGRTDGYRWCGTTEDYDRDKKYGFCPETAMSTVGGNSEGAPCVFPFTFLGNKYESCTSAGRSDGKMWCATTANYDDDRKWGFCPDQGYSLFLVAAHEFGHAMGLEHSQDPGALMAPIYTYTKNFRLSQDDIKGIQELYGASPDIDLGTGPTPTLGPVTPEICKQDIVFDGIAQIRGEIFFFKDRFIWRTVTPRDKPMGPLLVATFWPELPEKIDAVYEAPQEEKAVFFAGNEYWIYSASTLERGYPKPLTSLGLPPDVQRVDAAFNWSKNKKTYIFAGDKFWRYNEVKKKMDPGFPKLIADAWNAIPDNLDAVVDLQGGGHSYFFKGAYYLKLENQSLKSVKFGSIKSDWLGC
# Matrix metalloproteinase-9, sequence (P14780 whole entry): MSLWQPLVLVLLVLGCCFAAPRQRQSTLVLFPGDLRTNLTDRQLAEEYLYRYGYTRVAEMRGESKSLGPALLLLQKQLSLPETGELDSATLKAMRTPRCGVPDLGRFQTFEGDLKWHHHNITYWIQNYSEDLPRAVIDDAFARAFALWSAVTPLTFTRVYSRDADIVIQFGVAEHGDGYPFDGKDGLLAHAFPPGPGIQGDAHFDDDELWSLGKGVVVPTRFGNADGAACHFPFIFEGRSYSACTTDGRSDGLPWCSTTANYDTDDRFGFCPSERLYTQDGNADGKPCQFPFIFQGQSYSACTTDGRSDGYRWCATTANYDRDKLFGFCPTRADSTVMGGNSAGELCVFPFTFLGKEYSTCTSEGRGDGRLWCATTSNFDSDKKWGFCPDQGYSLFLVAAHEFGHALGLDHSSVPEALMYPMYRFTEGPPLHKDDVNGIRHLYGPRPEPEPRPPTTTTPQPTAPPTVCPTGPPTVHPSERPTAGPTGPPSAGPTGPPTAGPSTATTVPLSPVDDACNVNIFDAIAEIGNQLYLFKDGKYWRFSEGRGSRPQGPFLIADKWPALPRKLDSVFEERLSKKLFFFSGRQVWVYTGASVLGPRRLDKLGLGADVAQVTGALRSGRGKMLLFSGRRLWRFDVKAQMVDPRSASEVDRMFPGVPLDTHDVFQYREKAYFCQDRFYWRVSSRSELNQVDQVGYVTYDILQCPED
compound,measurement,setting,value
N#Cc1ccc(Cn2ccnc2)cc1Oc1ccc(Cl)cc1Cl,IC50,[1],280 nM
CCC1(c2cccc(Oc3cc(C(C)(N)c4cncn4C)ccc3C#N)c2)CCCCN(C)C1=O (mixture of isomers),IC50,[1],5.1 nM
O=C1NCCc2cc(Br)c(O)c(c2)Oc2c(Br)cc(cc2Br)CCNC(=O)/C(=N/O)Cc2cc(Br)c(O)c(c2)Oc2c(Br)cc(cc2Br)C/C1=N\O [BASTADIN 6],Ratio IC50,[2],41
same,IC50,HUVEC,52 nM
N[C@@H]1Cc2cc(Br)c(c(Br)c2)Oc2cc(ccc2O)C[C@H](N)C(=O)NCCc2cc(Br)c(c(Br)c2)Oc2cc(cc(Br)c2O)CCNC1=O,Ratio IC50,[2],26.2
same,IC50,HUVEC,610 nM
CCC1(c2cccc(Oc3cc(Cc4cncn4C)ccc3C#N)c2)CCCCN(C)C1=O (racemic),IC50,[1],10 nM
CCC1(c2cccc(Oc3cc(Cn4ccnc4)ccc3C#N)c2)CCCCN(C)C1=O (racemic),IC50,[1],7.1 nM
COc1cc(C)cc(Oc2c(C)cc(OC)cc2OC)c1,IC50,[3],1400 nM
same,IC50,HL-60,2200 nM
COc1ccc2cc1Oc1ccc(cc1)CCc1ccc(c(O)c1)Oc1cccc(c1)CC2,IC50,PC-3 [4],7980 nM
same,Activity,PC-3 [5],9.4%
same,IC50,[6],50000 nM
Cc1cc(O)cc2c1Oc1cc(O)cc(C)c1C(=O)O2,IC50,Aromatase,5300 nM
O=C1NCCc2ccc(c(Br)c2)Oc2cc(cc(Br)c2O)CCNC(=O)/C(=N/O)Cc2cc(Br)c(O)c(c2)Oc2c(Br)cc(cc2Br)C/C1=N\O [BASTADIN 19],Ratio IC50,[2],19
same,IC50,HUVEC,120 nM
CCC1(c2cccc(Oc3cc(C(N)c4cncn4C)ccc3C#N)c2)CCCCN(C)C1=O (stereo unspecified),IC50,[1],8 nM
CC[C@@]1(c2cccc(Oc3cc([C@](C)(N)c4cncn4C)ccc3C#N)c2)CCCCN(C)C1=O,IC50,[1],3.6 nM
COc1ccc(O)c2c1Oc1cccc(c1)CCc1ccc(O)c(c1)Oc1ccc(cc1)CC2,IC50,PC-3 [4],5450 nM
same,Activity,PC-3 [5],51.62%
same,IC50,[6],50000 nM
O=CN(O)C(CS(=O)(=O)c1ccc(Oc2ccc(OC(F)(F)F)cc2)cc1)[C@H]1CCCO1 (stereo partly specified),AUC,[7],26 µM·h
same,IC50,[8],0.61 nM
same,IC50,Interstitial collagenase,> 50000 nM
same,IC50,[9],0.32 nM
O=C1N/C=C/c2ccc(c(Br)c2)Oc2cc(ccc2O)CCNC(=O)/C(=N/O)Cc2cc(Br)c(c(Br)c2)Oc2cc(cc(Br)c2O)C/C1=N\O [BASTADIN 11],Ratio IC50,[2],38
same,IC50,HUVEC,53 nM
C[C@@H]1OC(C)(C)O[C@H]1C(CS(=O)(=O)c1ccc(Oc2ccc(OC(F)(F)F)cc2)cc1)N(O)C=O (stereo partly specified),AUC,[7],21 µM·h
same,IC50,[8],1.9 nM
same,half-life,[10],19.5 h
same,IC50,Interstitial collagenase,> 50000 nM
O=C1N/C=C/c2ccc(c(Br)c2)Oc2cc(cc(Br)c2O)CCNC(=O)/C(=N/O)Cc2ccc(c(Br)c2)Oc2cc(cc(Br)c2O)C/C1=N\O [BASTADIN 7],Ratio IC50,[2],56
same,IC50,HUVEC,54 nM
CC1(C)OC[C@H](CC(CS(=O)(=O)c2ccc(Oc3ccc(OC(F)(F)F)cc3)cc2)N(O)C=O)O1 (stereo partly specified),AUC,[7],2 µM·h
same,IC50,[8],1.5 nM
same,IC50,Interstitial collagenase,> 50000 nM
same,IC50,[9],5.5 nM
O=CN(O)C(COCCO)CS(=O)(=O)c1ccc(Oc2ccc(OC(F)(F)F)cc2)cc1 (stereo unspecified),half-life,[10],1.91 h
O=CN(O)C(CS(=O)(=O)c1ccc(Oc2ccc(OC(F)(F)F)cc2)cc1)[C@H](O)CO (stereo partly specified),AUC,[7],3 µM·h
same,half-life,[10],1 h
O=CN(O)C(CS(=O)(=O)c1ccc(Oc2ccc(OC(F)(F)F)cc2)cc1)C1CCC2(CC1)OCCO2 (stereo unspecified),IC50,Interstitial collagenase,> 50000 nM
CC[C@@]1(c2cccc(Oc3cc(Cn4ccnc4)ccc3C#N)c2)CCCCN(C)C1=O,IC50,[1],5.8 nM
O=C1NCCc2ccc(c(Br)c2)Oc2cc(ccc2O)CCNC(=O)/C(=N/O)Cc2cc(Br)c(O)c(c2)Oc2c(Br)cc(cc2Br)C/C1=N\O [BASTADIN 13],Ratio IC50,[2],14
same,IC50,HUVEC,520 nM
O=C1CCc2cc(Br)c(c(Br)c2)Oc2cc(ccc2O)CCC(=O)NCCc2cc(Br)c(c(Br)c2)Oc2cc(cc(Br)c2O)CCN1,Ratio IC50,[2],1.6
same,IC50,HUVEC,4000 nM
CC1(C)OC[C@H]([C@@H](CS(=O)(=O)c2ccc(Oc3ccc(OC(F)(F)F)cc3)cc2)N(O)C=O)O1,AUC,[7],53 µM·h
same,half-life,[10],16.8 h
O=C1NCCc2cc(Br)c(O)c(c2)Oc2ccc(cc2Br)CCNC(=O)/C(=N\O)Cc2cc(Br)c(O)c(c2)Oc2c(Br)cc(cc2Br)C/C1=N/O [BASTADIN 5],Ratio IC50,[2],76
same,IC50,HUVEC,62 nM
Oc1ccc2c(c1)CCc1ccc(cc1)Oc1cc(ccc1O)CCc1ccc-2c(O)c1 [RICCARDI C],IC50,PC-3 [4],3220 nM
same,Activity,PC-3 [5],6.21%
same,IC50,[6],50000 nM
COc1cccc(Oc2cc(Cn3ccnc3)ccc2C#N)c1OC,IC50,[1],15000 nM
COc1cc([C@@H]2c3cc4c(cc3[C@@H](O[C@@H]3O[C@@H]5CO[C@@H](C)O[C@H]5[C@H](O)[C@H]3O)[C@H]3COC(=O)[C@H]23)OCO4)cc(OC)c1O [ETOPOSIDE],IC50,[3],20 nM
same,IC50,HL-60,610 nM
Nc1cc2cc(c1O)Oc1c(Br)cc(cc1Br)CCNC(=O)/C(=N/O)Cc1cc(N)c(O)c(c1)Oc1c(Br)cc(cc1Br)C/C(=N/O)C(=O)NCC2,Ratio IC50,[2],3.4
same,IC50,HUVEC,960 nM
COc1ccc(/C=C\c2cc(OC)c(OC)c(OC)c2)cc1O [COMBRETASTATIN A4],IC50,P388,2.6 nM
O=CN(O)C(Cc1ccc(C(=O)O)cc1)CS(=O)(=O)c1ccc(Oc2ccc(OC(F)(F)F)cc2)cc1 (stereo unspecified),AUC,[7],16 µM·h
same,IC50,[8],0.53 nM
same,IC50,Interstitial collagenase,> 50000 nM
same,IC50,[9],0.53 nM
O=C1N/C=C/c2ccc(c(Br)c2)Oc2cc(cc(Br)c2O)CCNC(=O)/C(=N/O)Cc2cc(Br)c(c(Br)c2)Oc2cc(cc(Br)c2O)C/C1=N\O [BASTADIN 4],Ratio IC50,[2],38
same,IC50,HUVEC,53 nM
N#Cc1ccc(Cn2ccnc2)cc1Oc1ccccc1,IC50,[1],3700 nM
